# Measurements published in patent EP0618207B1, “Substituted pyridopyrimidines as antihypertensives” (AMERICAN HOME PRODUCTS CORPORATION, priority 1993, dated 1994).
# What was measured:
# [1] = system: A II-infused rat model; test: A II-infused rat model, antihypertensive action; format: in vivo, Rats; conditions: 3 mg/kg id, four hours post-administration
# Procedure: In accordance with their ability to antagonize angiotensin II, the compounds of this invention show antihypertensive action in the following A II-infused rat model. Rats are anesthetized with Dial-Urethane (0.60 mL/kg, ip) and the trachea cannulated with PE 240. Either one femoral artery and both femoral veins or the carotid artery and the corresponding jugular vein are cannulated with PE 50. If the jugular vein is cannulated, two cannulas are placed in the one vein. The initial portion of the duodenum (just distal to the stomach) is cannulated with PE 50 via a small midline incision. Arterial pressure and heart rate are measured from the arterial cannula. Ten to 15 min are allowed following surgery for stabilization of arterial pressure. Ganglion blockade is then produced by intravenous administration of mecamylamine at 3 mg/kg (1 mL/kg of a 3 mg/mL solution). Ganglion blockade causes a fall in arterial pressure of about 50 mmHg. Mecamylamine is given every 90 min throughout the remainder of the experiment. An A II infusion is then begun into the other venous cannula at 0.25 µg/kg/min (at 9.6 µL/min). The A II infusion returns arterial pressure to or slightly above the control level. Once arterial pressure has stabilized with the A II infusion, baseline values for mean arterial pressure (MAP) and heart rate are taken. […]
# [2] = metabolic studies in rats; format: in vivo
# [3] = system: Goldblatt (2K-1C) hypertensive rat model; test: Goldblatt (2K-1C) hypertensive rat model, antihypertensive action; format: in vivo, Sprague-Dawley rats
# Procedure: In further accordance with their ability to antagonize angiotensin II, the compounds of this invention show antihypertensive action in the following Goldblatt (2K-1C) hypertensive rat model. Sprague-Dawley rats weighing 150 g were anesthetized with pentobarbital (50 mg/kg ip) and the left renal artery was clipped with a silver wire bent to an internal diameter of 0.2 mm. The hypertension was established 4-7 weeks after clipping. At that time, the animals were anesthetized with pentobarbital (50 mg/kg ip) and the right carotid artery was cannulated. The catheter was passed subcutaneously to the dorsal side of the neck and exteriorized. The animals were fasted overnight but allowed access to water and the experiment was performed the next morning. The carotid catheter was connected to a blood pressure transducer which was linked to a MI^2 computer data acquisition system or to a Grass or Beckman recorder for the recording of mean arterial pressure (MAP) and heart rate. For oral administration, the rats were given either a compound of the invention (1, 3 or 10 mg/kg), losartan (30 mg/kg) as a standard or vehicle (0.5% methyl cellulose in distilled water) by gastric gavage (ig) in a volume of 5 mL/kg. For intravenous administration, the rats were given either a compound of the invention (0.03, 0.1, 1, 3 or 10 mg/kg) or vehicle (≦50% NaHCO3 in distilled water) in a volume of 1 mL/kg. In all experiments, saline was infused into the arterial cannula at 5 µL/min throughout the experiment to maintain patency of the cannula. Each compound was administered to a separate group of 6-12 rats and MAP and heart rate were recorded for 24 h. […] At each time point following dosing, averages were determined for absolute MAP, change in MAP (in mm Hg), and heart rate for all animals, and the standard error of the mean was calculated.
"identified as metabolite of the compound of Example 3 of U.S. Patent No. 5,149,599 [2]",Structure (SMILES),lowered the A II dependent blood pressure by an average of [1] [%],"maximum decrease in MAP ([3]; 10 mg/kg ig, 9 hours post-administration) [mm Hg]","presence of metabolite (duration and amount), Example 4 compared with Example 6 [2]","maximum decrease in MAP ([3]; 0.1 mg/kg iv, 4 hours post-administration) [mm Hg]","maximum decrease in MAP ([3]; 10 mg/kg ig, 23 hours post-administration) [mm Hg]"
,"Cc1nc(CO)nc2c1CCC(=O)N2Cc1ccc(-c2ccccc2-c2nnn[nH]2)cc1 [Example 2, 2-Hydroxymethyl-4-methyl-8-[2'-(1H-tetrazol-5-yl)biphenyl-4-ylmethyl]-5,8-dihydro-6H-pyrido[2,3-d]pyrimidin-7-one]",30,,,,
significant metabolites,"Cc1nc(C)c2c(n1)N(Cc1ccc(-c3ccccc3-c3nn[nH]n3)cc1)C(=O)CC2O (stereo not shown) [Example 6, 5-Hydroxy-2,4-dimethyl-8-[2'-(1H-tetrazol-5-yl)-biphenyl-4-ylmethyl]-6,8-dihydro-5H-pyrido[2,3-d]pyrimidine-7-one Hydrate 0.4 Etherate]",,71,,,
significant metabolites,"Cc1nc(C)c2c(O)cc(=O)n(Cc3ccc(-c4ccccc4-c4nnn[nH]4)cc3)c2n1 [Example 4, 2,4-Dimethyl-5-hydroxy-8-[2'-(1H-tetrazol-5-yl)biphenyl-4-ylmethyl]-8H-pyrido[2,3-d]pyrimidin-7-one Sesquihydrate]",,,present significantly longer and in greater amounts than the latter,67,66
